Consider seven compounds from patent US9579383B2, “Formulations for enhanced bioavailability of orally administered polar agents” (ALA WAI PHARMA, INC., priority 2007, dated 2017).

For data set [1], the system named is Caco-2 cell monolayers. Description: Caco-2 cell permeability assay of peramivir with permeability enhancers. Conditions: for Fold-Enhancement Over Control / ng peramivir transported/min: peramivir 15 μg/mL.
For another data set, the system named is influenza A and B. Conditions: oral formulation, phase III clinical trial; cited from earlier work.
For the next data set, the system named is viral neuraminidase. Conditions: depending on the influenza strain; based on concentrations required for 50% inhibition of neuraminidase activity in vitro; cited from earlier work.
The conditions of data set [2]: human, in vivo; cited from earlier work.
The test system of data set [3] is avian influenza virus (H5N1). The following applies: cited from earlier work.
In a further data set the test system is Caco-2 cells. Description: cytotoxicity of PPS at the concentrations used. The class given is cell-based. The following applies: in the concentrations used (0.001% to 0.01%).
The test system of data set [4] is Caco-2 cell monolayers.
[5] abbreviates: enhancer concentration 0.05% in HBSS.
The mark [6] stands for this setting: enhancer concentration 0.10% in HBSS.
Setting [7] is: enhancer concentration 0.20% in HBSS.

Read-outs that look alike come from different tables or passages of the source.

`CCCCCCCC/C=C\CCCCCCCC(=O)OCCOCC(OCCO)C1OCC(OCCO)C1OCCO` (stereo not drawn) [Tween-80]: the “peramivir permeability enhancement in Caco-2 cell assays (in words)” value in the data set with Caco-2 cell monolayers [1] was “negative”.

Take `CCC(CC)[C@H](NC(C)=O)[C@@H]1[C@H](O)[C@@H](C(=O)O)C[C@H]1NC(=N)N` [peramivir, (1S,2S,3S,4R)-3-[(1S)-1-Acetamido-2-ethyl-butyl]-4-(diaminomethylideneamino)-2-hydroxy-cyclopentane-1-carboxylic acid]: the “antiviral activity against influenza A and B” value with influenza A and B was “did not reach statistical significance”. Further, the “potency as neuraminidase inhibitor relative to oseltamivir (Tamiflu®) and zanimivir” value in the data set on viral neuraminidase is reported as 2 to 10 times. In addition, the oral bioavailability entry in data set [2] was “very poor oral bioavailability”. Also, the sensitivity to peramivir result in data set [3] is given as “sensitive”.

As for `CCCCCCCCCCCCCCCC[N+](C)(C)CCCS(=O)(=O)[O-]` [PPS, 3-(N,N-dimethylpalmitylammonio)propane sulfonate], the cytotoxicity entry in the data set on Caco-2 cells was “not cytotoxic”. Besides, the “peramivir permeability (in words)” value in the data set on Caco-2 cell monolayers [1] (PPS varying from 0.001% to 0.01% final concentration) is reported as “substantially increased peramivir permeability”.

As for `OCC(O)CO` [Glycerol, glycerol], the “peramivir permeability (in words)” value in the data set on Caco-2 cell monolayers [4] was “substantial increase in peramivir permeability”. For the same compound, the peramivir permeability enhancement entry in the data set with Caco-2 cell monolayers [4] (human) is “Less than 150%”.

As for `CN1CCNCC1` [N-Methylpiperazine, N-methylpiperazine], the “peramivir permeability enhancement in Caco-2 cell assays (in words)” value in the data set on Caco-2 cell monolayers [1] was “negative”.

For the compound phosphatidylcholine, in the data set on Caco-2 cell monolayers [1], the “peramivir permeability enhancement in Caco-2 cell assays (in words)” value is listed as “some potential for peramivir permeability enhancement”. The “Fold-Enhancement Over Control” value in the data set on Caco-2 cell monolayers [1] (setting [5]) came to 2.11 fold; in the data set with Caco-2 cell monolayers [1] (setting [6]), 2.11 fold; in the data set on Caco-2 cell monolayers [1] (setting [7]), 7 fold. The ng peramivir transported/min turned out to be 0.4 ng/min in the data set with Caco-2 cell monolayers [1] (setting [5]), 0.4 ng/min in the data set with Caco-2 cell monolayers [1] (setting [6]) and 1.33 ng/min with Caco-2 cell monolayers [1] (setting [7]).

For the compound `O=C([O-])c1ccccc1O.[Na+]` [sodium salicylate], in the data set on Caco-2 cell monolayers [1], the “peramivir permeability enhancement in Caco-2 cell assays (in words)” value is “negative”.
